pIC50: −log10 of the molar value. Where a name gives a salt, the structure may show the parent alone.
Biological target: T1, TgMAPK1 (Toxoplasma gondii, UniProt S8EUF0)
T1 construct: gene MAPKL1; full-length, endogenously C-terminally 3×HA-tagged TgMAPK1 (TGGT1_312570), immunoprecipitated from RH strain tachyzoite lysates
Assay: in vitro autokinase assay (γ[…]-ATP) on anti-HA immunoprecipitated kinase, dose response
Format: biochemical

T1 sequence (S8EUF0 whole entry): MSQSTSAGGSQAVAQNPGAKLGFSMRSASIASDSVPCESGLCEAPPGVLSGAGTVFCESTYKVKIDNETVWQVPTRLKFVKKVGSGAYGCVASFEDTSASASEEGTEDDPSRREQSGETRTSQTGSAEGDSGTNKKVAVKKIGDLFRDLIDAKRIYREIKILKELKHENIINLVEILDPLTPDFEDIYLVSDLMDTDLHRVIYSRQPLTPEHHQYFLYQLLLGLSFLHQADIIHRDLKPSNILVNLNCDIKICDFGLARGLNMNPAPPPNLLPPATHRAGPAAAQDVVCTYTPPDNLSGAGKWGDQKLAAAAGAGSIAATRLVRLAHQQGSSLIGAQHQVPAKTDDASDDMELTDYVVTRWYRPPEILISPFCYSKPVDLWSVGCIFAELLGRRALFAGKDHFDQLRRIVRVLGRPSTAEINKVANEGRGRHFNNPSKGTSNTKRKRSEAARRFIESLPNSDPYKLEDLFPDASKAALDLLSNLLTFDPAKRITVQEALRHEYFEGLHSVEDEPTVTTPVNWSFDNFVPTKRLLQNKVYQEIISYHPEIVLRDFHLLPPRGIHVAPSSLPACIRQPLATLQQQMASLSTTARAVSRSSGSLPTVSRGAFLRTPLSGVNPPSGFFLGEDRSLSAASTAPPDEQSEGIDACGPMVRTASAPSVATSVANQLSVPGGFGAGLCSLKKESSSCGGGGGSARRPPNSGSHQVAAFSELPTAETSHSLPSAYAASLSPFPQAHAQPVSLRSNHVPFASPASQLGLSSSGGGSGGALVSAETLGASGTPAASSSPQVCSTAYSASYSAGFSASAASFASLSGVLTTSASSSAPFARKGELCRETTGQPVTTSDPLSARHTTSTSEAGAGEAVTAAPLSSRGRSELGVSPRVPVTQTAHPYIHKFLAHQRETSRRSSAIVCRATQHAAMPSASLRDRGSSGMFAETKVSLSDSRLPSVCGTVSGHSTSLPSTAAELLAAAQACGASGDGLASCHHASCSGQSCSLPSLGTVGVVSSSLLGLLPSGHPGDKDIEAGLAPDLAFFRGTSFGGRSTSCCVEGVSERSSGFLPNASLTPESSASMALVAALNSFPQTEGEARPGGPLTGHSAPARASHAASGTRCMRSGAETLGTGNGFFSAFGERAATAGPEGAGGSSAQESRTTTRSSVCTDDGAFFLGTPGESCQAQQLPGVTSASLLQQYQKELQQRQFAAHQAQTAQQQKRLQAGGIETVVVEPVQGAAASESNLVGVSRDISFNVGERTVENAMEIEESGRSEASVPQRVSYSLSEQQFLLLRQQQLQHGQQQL

Cc1cccc(-c2[nH]c(C(C)(C)C)nc2-c2ccc3c(c2)OCO3)n1 [SB505124, 2-(5-benzo[1,3]dioxol-5-yl-2-tert-butyl-3H-imidazol-4-yl)-6-methylpyridine hydrochloride]
pIC50: 6.90
